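These data come from cells grown in 96-well plates and exposed to compound for 48 hours at five concentrations. The concentration for 50% growth inhibition is given as GI50.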 Activity calls are given as the source filed them. Cut-off read from the data, not from the text of the source: active = GI50 up to about 1.1 µM and inactive = higher.
Tests used:
Assay in all cases: NCI tumour cell line growth inhibition, 48 h
SK-MEL-28 = tested on: SK-MEL-28
K562 = tested on: K562
COLO 205 = tested on: COLO 205
MOLT-4 = tested on: MOLT-4
DU-145 = tested on: DU-145
TK-10 = tested on: TK-10
SW-620 = tested on: SW-620
MDA-N = tested on: MDA-N
SR = tested on: SR
IGROV-1 = tested on: IGROV-1
MDA-MB-231 = tested on: MDA-MB-231
CAKI-1 = tested on: CAKI-1
BT-549 = tested on: BT-549
HCT-15 = tested on: HCT-15
HOP-62 = tested on: HOP-62
SK-MEL-2 = tested on: SK-MEL-2
OVCAR-8 = tested on: OVCAR-8
NCI-H23 = tested on: NCI-H23
HCC 2998 = tested on: HCC 2998
EKVX = tested on: EKVX

Compound | GI50 (SK-MEL-28) | GI50 (K562) | GI50 (COLO 205) | GI50 (MOLT-4) | GI50 (DU-145) | GI50 (TK-10) | GI50 (SW-620) | GI50 (MDA-N) | GI50 (SR) | GI50 (IGROV-1) | GI50 (MDA-MB-231) | GI50 (CAKI-1) | GI50 (BT-549) | GI50 (HCT-15) [µM] | GI50 (HOP-62) | GI50 (SK-MEL-2) | GI50 (OVCAR-8) | GI50 (NCI-H23) | GI50 (HCC 2998) | GI50 (EKVX)
Cc1cc(C)c(NC(=S)NC(=O)c2ccccc2)cc1C | > 100 µM (inactive) | 74 µM (inactive) | > 100 µM (inactive) | 93.5 µM (inactive) | > 100 µM (inactive) | > 100 µM (inactive) | > 100 µM (inactive) | 78.9 µM (inactive) | 37.7 µM (inactive) | > 100 µM (inactive) | > 100 µM (inactive) | > 100 µM (inactive) | > 100 µM (inactive) | 93.1 | > 100 µM (inactive) | > 100 µM (inactive) | > 100 µM (inactive) | > 100 µM (inactive) | > 100 µM (inactive) | > 100 µM (inactive)
CCC(C)C1NC(=O)C(NC(=O)c2c3nc4c(C(=O)NC5C(=O)NC(C(C)CC)C(=O)N6CCCC6C(=O)N(C)CC(=O)N(C)C(C(C)C)C(=O)OC5C)ccc(C)c4oc-3c(C)c(=O)c2O)C(C)OC(=O)C(C(C)C)N(C)C(=O)CN(C)C(=O)C2CCCN2C1=O (stereo not given) | 5.24 µM (inactive) | 0.74 µM (active) | 1.35 µM (inactive) | 1.01 µM (active) | 5.78 µM (inactive) | 10.2 µM (inactive) | 1.09 µM (active) | 4.21 µM (inactive) | 0.119 µM (active) | 0.239 µM (active) | 1.25 µM (inactive) | 10.3 µM (inactive) | 5.81 µM (inactive) | 16.6 | 2.99 µM (inactive) | 2.07 µM (inactive) | 1.6 µM (inactive) | 5.41 µM (inactive) | 3.16 µM (inactive) | 14.2 µM (inactive)
Cc1ccc2c(c1)C(=O)c1[nH]c3ccc(F)cc3c1CO2 | 97.1 µM (inactive) | 29 µM (inactive) | > 100 µM (inactive) | 58.2 µM (inactive) | > 100 µM (inactive) | 31.8 µM (inactive) | 24.4 µM (inactive) | > 100 µM (inactive) | 49.8 µM (inactive) | 30.3 µM (inactive) | > 100 µM (inactive) | 27.5 µM (inactive) | 31.1 µM (inactive) | > 100 | 10.1 µM (inactive) | 12.1 µM (inactive) | 15.8 µM (inactive) | 25.2 µM (inactive) | > 100 µM (inactive) | 67.6 µM (inactive)
C/C=C/C(CC(O)(C(F)(F)F)C(F)(F)F)=N/NC(N)=S | > 10 µM (inactive) | > 10 µM (inactive) | > 10 µM (inactive) | > 10 µM (inactive) | > 10 µM (inactive) | > 10 µM (inactive) | > 10 µM (inactive) | > 10 µM (inactive) | > 10 µM (inactive) | > 10 µM (inactive) | > 10 µM (inactive) | > 10 µM (inactive) | > 10 µM (inactive) | > 10 | > 10 µM (inactive) | > 10 µM (inactive) | > 10 µM (inactive) | > 10 µM (inactive) | > 10 µM (inactive) | > 10 µM (inactive)
C=C(C)[C@@H](O)[C@H](O)C[C@H](C)C1CC[C@]2(C)C1=CC[C@@H]1[C@@]3(C)CC[C@@H](OC(C)=O)C(C)(C)[C@@H]3C[C@@H](OC3OC(COC(C)=O)C(O)C(O)C3O)[C@]12C (stereo not given in full) | 2.54 µM (inactive) | 2.02 µM (inactive) | 1.93 µM (inactive) | 2.17 µM (inactive) | 3.4 µM (inactive) | 3.39 µM (inactive) | 3.34 µM (inactive) | 2.81 µM (inactive) | 1.99 µM (inactive) | 2.4 µM (inactive) | 2.21 µM (inactive) | 3.52 µM (inactive) | 3.33 µM (inactive) | 3.37 | 2.99 µM (inactive) | 1.77 µM (inactive) | 4.04 µM (inactive) | 4.06 µM (inactive) | 0.354 µM (active) | 3.03 µM (inactive)
CC(C)[C@@H](C)[C@@]1(C)C[C@@H]1[C@@H](C)[C@H]1CC[C@@H]([C@@H]2CC=C3C[C@@H](O)CC[C@]3(C)C2=O)[C@]1(C)CCO | 7.53 µM (inactive) | 3.49 µM (inactive) | 11.9 µM (inactive) | 4.17 µM (inactive) | 15.3 µM (inactive) | 11.5 µM (inactive) | 7.55 µM (inactive) | 13.3 µM (inactive) | 2.69 µM (inactive) | 15.6 µM (inactive) | 14.8 µM (inactive) | 12.8 µM (inactive) | 16.6 µM (inactive) | 5.27 | 17.3 µM (inactive) | 18.3 µM (inactive) | 12.7 µM (inactive) | 14.1 µM (inactive) | 4.2 µM (inactive) | 12.9 µM (inactive)
Nc1ncc(Cl)c(NCC2(CO)CC(CCc3ccccc3)C2)n1 (stereo not given) | > 100 µM (inactive) | 0.321 µM (active) | > 100 µM (inactive) | 1.82 µM (inactive) | > 100 µM (inactive) | 14.4 µM (inactive) | > 100 µM (inactive) | > 100 µM (inactive) | 2.38 µM (inactive) | > 100 µM (inactive) | > 100 µM (inactive) | 12 µM (inactive) | > 100 µM (inactive) | > 100 | > 100 µM (inactive) | > 100 µM (inactive) | 44 µM (inactive) | > 100 µM (inactive) | > 100 µM (inactive) | > 24.9 µM (inactive)
CCOc1cc2c(cc1O)CC[C@@H]1[C@@H]2CC[C@]2(C)C(OS(=O)OC3CC[C@@H]4[C@H]5CCc6cc(O)c(OCC)cc6[C@@H]5CC[C@@]34C)CC[C@@H]12 (stereo not given in full) | 0.6 µM (active) | 0.316 µM (active) | 23.1 µM (inactive) | 1.14 µM (inactive) | 1.62 µM (inactive) | 19.7 µM (inactive) | 0.355 µM (active) | 0.117 µM (active) | 0.182 µM (active) | 4.52 µM (inactive) | 4.06 µM (inactive) | 2.45 µM (inactive) | 1.81 µM (inactive) | 0.507 | 0.887 µM (active) | 0.92 µM (active) | 1.38 µM (inactive) | 1.84 µM (inactive) | 16 µM (inactive) | 3.21 µM (inactive)
CC(C)=CCN1CC(C)C(=O)Nc2cc(Cl)ccc21 (stereo not given) | 43.3 µM (inactive) | 96.8 µM (inactive) | 19.8 µM (inactive) | > 100 µM (inactive) | 30 µM (inactive) | 19.3 µM (inactive) | 26.7 µM (inactive) | 26 µM (inactive) | > 100 µM (inactive) | 24.3 µM (inactive) | 22 µM (inactive) | 18.5 µM (inactive) | 18.7 µM (inactive) | 29.9 | 26.6 µM (inactive) | 16.2 µM (inactive) | 29.7 µM (inactive) | 21.6 µM (inactive) | 28.5 µM (inactive) | 26.2 µM (inactive)
